Results as given in patent publication US20190308933A1, “PHENYLAMIDINES AND THE USE THEREOF AS FUNGICIDES” (priority 2016, published 2019).
Like-named read-outs stand apart in the source and are kept apart here.

Assays:
[1] = Log P measurement by HPLC on reversed phase columns (EEC directive 79/831 Annex V.A8); type: physicochemical; details: reversed phase HPLC column, LC-UV
Description: [table] Measurement of Log P values was performed according to EEC directive 79/831 Annex V.A8 by HPLC (High Performance Liquid Chromatography) on reversed phase columns with the following methods: If more than one Log P value is available within the same method, all the values are given and separated by “+”. […] Lambda-max-values were determined using UV-spectra from 200 nm to 400 nm and the peak values of the chromatographic signals.

[2] = test system: Phakopsora pachyrhizi; assay: In vivo preventive test on Phakopsora (soybeans); design: species or system Phakopsora pachyrhizi (soybean rust) on soybeans; details: 168 h, young soybean plants sprayed, 10 ppm of active ingredient, evaluated 7 days after inoculation, 0% = untreated control, 100% = no disease, read-out: efficacy
Description: Example: In Vivo Preventive Test on Phakopsora Test (Soybeans)
To produce a suitable preparation of active compound, 1 part by weight of active compound is mixed with the stated amounts of solvent and emulsifier, and the concentrate is diluted with water to the desired concentration.
To test for preventive activity, young plants are sprayed with the preparation of active compound at the stated rate of application. After the spray coating has dried on, the plants are inoculated with an aqueous spore suspension of the causal agent of soybean rust (Phakopsora pachyrhizi) and stay for 24 h without light in an incubation cabinet at approximately 24° C. and a relative atmospheric humidity of 95%.
The plants remain in the incubation cabinet at approximately 24° C. and a relative atmospheric humidity of approximately 80% and a day/night interval of 12 h.
The test is evaluated 7 days after the inoculation. 0% means an efficacy which corresponds to that of the untreated control, while an efficacy of 100% means that no disease is observed.

[3] = acidic range, 0.1% formic acid in water and acetonitrile as eluent (linear gradient 10% to 95% acetonitrile), read-out: LogP [a]
[4] = neutral range, 0.001 molar ammonium acetate solution in water and acetonitrile as eluent (linear gradient 10% to 95% acetonitrile), read-out: LogP [b]

| SMILES | chromatographic logP [1, 3] | chromatographic logP [1, 4] | pest or weed control at 10 ppm [2] [%] |
| --- | --- | --- | --- |
| CCN(C)C=Nc1cc(Cl)c(Cc2ccccc2C)cc1C [Example 23, N′-[5-chloro-2-methyl-4-[(2-methylphenyl)methyl]phenyl]-N-ethyl-N-methylmethanimidamide] | 1.66 | 5.54 | 90 to 100 |
| CCN(C)C=Nc1cc(Cl)c(Cc2ccccc2)cc1C [Example 6, N′-(4-benzyl-5-chloro-2-methylphenyl)-N-ethyl-N-methylmethanimidamide] | 1.72 | 5.16 | 90 to 100 |
